Data: patent EP1222921B1, “Pharmaceutical compositions of tizoxanide and/or nitazoxanide” (Romark Laboratories, L.C., priority 1997, dated 1998)
≈ marks a conversion by molar mass, not a printed value. Where “and” joins values, the source holds several entries; their conditions need not be identical. Equal values may be shown once.

How the values were obtained:
Cryptosporidium parvum [1] = assay type: in vivo
Procedure: An open-label study of nitazoxanide for AIDS-related cryptosporidial diarrhea documented decreased bowel movements among persons taking 500, 1000, 1500, or 2000 mg of the drug daily. […] Almost all participants had failed therapy with azithromycin or paromomycin.
By the end of the study, 8 of 11 had completely eradicated the parasite and the other three had substantial reductions in oocyst levels. There was a trend toward better response with doses of 1000 mg daily or higher and with longer therapy. Two trial participants had urticarial skin rashes; more than 90 percent adhered to the study regimen for more than four weeks.

[2] = system: M. intracellular ATCC 13950; assay: MIC by standard agar dilution; assay type: cell-based, Mycobacterium intracellular; details: Mycobacterium, ATCC13950, 504 h, Middlebrook 7H11 agar, 3 weeks
Fasciola hepatica = assay: In vitro culture of mature flukes
Procedure: The in vitro efficacy of nitazoxanide and desacetyl-nitazoxanide was tested against Fasciola hepatica. Mature F. hepatica were recovered from the bile ducts of 3 calf livers condemned due to fasciolosis at the Louisiana Veterinary Medical Diagnostic Laboratory at the Hardy's Meat […], Bunkie, LA. Flukes were washed in sterile saline for 1 hour and transferred to sterile saline or RPMI (pH 7.4) for an additional 3 hours. Flukes were then held in sterile RPMI-rabbit serum (50:50 v/v) or sterile RPMI (pH 7.4) overnight at 37°C with 5% CO2. In vitro culture (37°C, 5% CO2) was done according to a modification of the method of Ibarra and Jenkins ([…]. 70:655-661, 1984). […] Only flukes that had normal activity and morphology were used. […] Two control flukes were included in each replicate, […] and one in unmedicated culture media […]. Flukes were examined for the effects of drug treatment as evidenced by death, motility disturbances or morpholgic changes as compared to untreated control flukes, using a backlighted panel and a lighted 3X magnifying lens.

Cryptosporidium parvum [3] = assay: Preliminary clinical trial in AIDS patients with chronic cryptosporidial diarrhea; assay type: in vivo; details: of 16 evaluable by the eighth week, oral 500 to 2000 mg daily
Procedure: In a preliminary clinical trial, 30 AIDS patients with chronic cryptosporidial diarrhea were treated with oral nitazoxanide from 500 to 2000 mg daily. […] Twenty-eight people completed two or more weeks of therapy and 16 of those were evaluable for a therapeutic response by the eighth week of treatment. […] Six patients met both clinical and parasitological response criteria for benefit. Patients who received higher daily doses of drug for longer periods of time were more likely to have a positive response.

Cryptosporidium parvum [4] = assay: Experimentally infected suckling mice, oocyst shedding; assay type: in vivo
Procedure: The effect of nitazoxanide was tested against Cryptosporidium parvum in experimentally infected mice. Nitazoxanide was supplied by Romark Laboratories, L.C. in Tampa, Florida. The total human dose (1 g/day for 7 days i.e. 7 g) was modified for use for mice according to Paget and Barnes. The human dose was multiplied by 0.0026 for mice (weighing approximately 20 grams) to obtain he total amount of the drug needed for each host morning and evening for 7 consecutive days. […] The doses were administered by mouth using a plastic syringe equipped with around tip needle. Twenty (20) 2-day old suckling mice were infected by oral administration of 100,000 oocysts of Crytospordium parvum obtained from infected calves. Before being administered to mice, the oocysts were concentrated using a sugar solution according to the technique described by […]. Rectal swabs from each mouse were obtained and examined daily using the modified […] staining technique described by Graczyk et al. Oocysts shedding appeared in feces 2 days after the oral infection of the animals. On the third day following infection of the animals, 10 mice received 1.3 mg of nitazoxanide, morning and evening, for 7 consecutive days while the 10 remaining mice were kept as untreated controls. Rectal swabs were obtained daily for each of the 7 days of treatment and for each of the 7 days following the end of treatment. The oocysts were suspended in oil and counted per 100 fields under a microscope.

[5] = system: immature (4-week/old) F. gigantica; assay: Experimentally infected rabbits, immature flukes; assay type: in vivo, Fasciola gigantica
Procedure: Nitazoxanide was tested against immature and mature Fasciola gigantica in experimentally infected rabbits. Fasciola gigantica encysted metacercariae (EMC) were collected on cellophane sheet after 28-35 days from infection of L. calludi snails by Fasciola gigantica miracidium using the technique described by […] snails were exposed daily to artificial light, for 30 minutes, in clean dechlorinated tap water. The resulting encysted […]) were preserved at 4°C in a refrigerator for 5 to 8 days under the surface of water until they were used to infect experimental animals. Forty (40) Boscat rabbits, weighting 1.5 to 2 kg each, were included in the study and allocated to two treatment groups of 20 animals. Animals from Group 1 were orally infected with 35-40 encysted […] wrapped in a leaf of lettuce and pushed on the root of the tongue of the animals. The mouths of the animals were held closed by hand until the encysted metacercariae were swallowed. These Group 1 animals were used to test the efficacy of nitazoxanide against immature stages (4-5 weeks old) of Fasciola […]. Ten animals from Group 1 received 35 mg of nitazoxanide, morning and evening, for 7 consecutive days 4 weeks after their infection at the immature stage of the parasite cycle. The ten remaining animals in Group 1 were kept as untreated controls. All animals were fed with dry ration until the end of the experiment. Seven days after administration of the last dose of nitazoxanide, all rabbits from each group were sacrificed. The surface of the liver was examined for the presence of necrotic migrating furrows especially at the immature stage of the parasite cycle. These necrotic areas were examined using two surgical needles in order to extract the juvenile migrating flukes according to the technique described by El-Bahy. The livers were sliced in small pieces especially around the migrating furrows and macerated under a microscope in order to extract the existing flukes. The abdominal cavity and the visceral surfaces were washed with warm water. The water was then collected, sieved and examined for identification of juvenile flukes. All the collected parasites as well as parts of them were counted in both treated and untreated animal in both Groups 1 and 2. […] The efficacy of nitazoxanide was calculated by using the formula indicated below: % efficacy(a - b)/(a)x 100 [formula] Where: • a = the number of flukes recovered from feces in the control animals • b = the number of flukes recovered from feces in the treated animals.

[6] = after 23 weeks, 500, 1000, 1500, or 2000 mg daily
[7] = mean of 10 rabbits, 70 mg/day for 7 consecutive days

Structure (SMILES): CC(=O)Oc1ccccc1C(=O)Nc1ncc([N+](=O)[O-])s1 [Nitazoxanide, 2-(acetolyloxy)-N-(5-nitro 2-thiazoly) benzamide]
- complete clinical response (one to three predominantly formed bowel movements daily) (Cryptosporidium parvum [1]; [6]): 9 of 13
- partial clinical response (Cryptosporidium parvum [1]; [6]): 4 of 13
- completely eradicated the parasite (Cryptosporidium parvum [1]; by the end of the study): 8 of 11
- substantial reductions in oocyst levels (Cryptosporidium parvum [1]; by the end of the study, remaining of 11): three
- MIC [2]: 2 µg/mL (≈ 6.51 µM)
- effects on flukes (death, motility disturbances) (Fasciola hepatica; 1 µg treatment): one fluke died by hour 16, three by hour 41 and five by hour 74; 3 flukes remained active at hour 91 and one fluke had activity at hour 115
- effects on flukes (death, motility disturbances) (Fasciola hepatica; 3 µg treatment): By 23 hours, only 2 sluggish flukes in the 3 µg group remained alive; these were dead by hour 41
- effects on flukes (death, motility disturbances) (Fasciola hepatica; 5 µg treatment): only 3 flukes were active at hour 6 and none were active at 16 hours
- effects on flukes (death, motility disturbances) (Fasciola hepatica; 10 µg treatment): only one fluke survived to 16 hours
- effects on flukes (death, motility disturbances) (Fasciola hepatica; 25 µg treatment): all flukes were dead or moribund except one fluke at 1 hour in the 25 µg group it was dead at 3 hour
- effects on flukes (death, motility disturbances) (Fasciola hepatica; 50 µg treatment): all flukes were dead or moribund
- effects on flukes (death, motility disturbances) (Fasciola hepatica; 100 µg treatment): all flukes were dead or moribund
- individuals with a marked reduction or eradication of the parasite in the stool (Cryptosporidium parvum [3]): 10
- patients who met both clinical and parasitological response criteria (Cryptosporidium parvum [3]): Six
- people with the organism becoming undetectable (Cryptosporidium parvum [3]): four
- persons with a 50 percent or greater reduction in daily bowel movement frequency (Cryptosporidium parvum [3]): 12
- oocyst shedding at the end of treatment (Cryptosporidium parvum [4]; Day 7, 2.6 mg/day by mouth for 7 consecutive days, suckling mice): complete reduction of the oocyst shedding
- fecal examinations after the end of treatment (Cryptosporidium parvum [4]; days 3 and 7 after the end of treatment): negative examinations
- treated mice with decreased oocysts shedding (Cryptosporidium parvum [4]; end of the third day of treatment, 2.6 mg/day by mouth for 7 consecutive days, suckling mice): 6 of the 10
- overall efficacy ([5]; 70 mg/day dose for 7 consecutive days): moderately effective
- No. of flukes extracted from liver of Treated Rabbits ([5]; individual rabbits No. 1-10, 35 mg morning and evening for 7 consecutive days, 4 weeks after infection): 3 (5×) and 4 (4×) and 2
- Efficacy % ([5]; individual rabbits No. 1-10 versus untreated control, 35 mg morning and evening for 7 consecutive days): 50% (4×) and 40% (3×) and 42% (2×) and 60%
- Efficacy %, Mean (means percentage of reduction) [5, 7]: 46.77%
- No. of flukes extracted from liver of Treated Rabbits, Mean [5, 7]: 3.3
- percentage of reduction, range ([5]; range over 10 rabbits, 70 mg/day for 7 consecutive days): 40-60%
